Measurements: US20080207708A1, “Oxazole and Thiazole Compounds and Their Use in the Treatment of Pge2 Mediated Disorders” (GLAXO GROUP LIMITED, priority 2005, published 2008)

What follows are compounds tested against T1, EP1 receptors (Homo sapiens, UniProt P34995) (assay: Binding assay for the human prostanoid EP1 receptor (competition with [3H]-PGE2)). Settings: [3H]-PGE2 competition; averages of a number of experiments; read-out: pIC50 value, binding assay for the human prostanoid EP1 receptor (converted).
T1 sequence (P34995 1-402): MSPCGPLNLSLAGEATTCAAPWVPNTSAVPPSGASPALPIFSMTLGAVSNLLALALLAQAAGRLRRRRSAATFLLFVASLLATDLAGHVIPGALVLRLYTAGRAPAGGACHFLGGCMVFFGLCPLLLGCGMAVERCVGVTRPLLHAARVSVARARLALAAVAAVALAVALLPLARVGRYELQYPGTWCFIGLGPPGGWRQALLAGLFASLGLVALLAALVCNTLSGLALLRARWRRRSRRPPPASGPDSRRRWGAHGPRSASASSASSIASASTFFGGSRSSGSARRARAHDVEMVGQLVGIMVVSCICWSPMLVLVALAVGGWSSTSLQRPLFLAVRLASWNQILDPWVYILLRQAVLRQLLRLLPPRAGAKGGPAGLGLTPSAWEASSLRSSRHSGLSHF
Set-up: expressed in transfected cells; host or cells: CHO-K1 cells, membrane fraction
Procedure: Competition assay using [^3H]-PGE2.
Compound potencies are determined using a radioligand binding assay. In this assay compound potencies are determined from their ability to compete with tritiated prostaglandin E2 ([^3H]-PGE2) for binding to the human EP1 receptor.
This assay utilises Chinese hamster ovary-K1 (CHO-K1) cells into which a stable vector containing the EP1 cDNA has previously been transfected. Cells are cultured in suitable flasks containing culture medium such as DMEM:F-12 supplemented with 10% v/v foetal calf serum, 2 mM L-glutamine, 0.25 mg/ml geneticin, 10 μg/ml puromycin and 10 μM indomethacin.
Cells are detached from the culture flasks by incubation in calcium and magnesium free phosphate buffered saline containing 1 mM disodium ethylenediaminetetraacetic acid (Na2EDTA) and 10 μM indomethacin for 5 min. The cells are isolated by centrifugation at 250×g for 5mins and suspended in an ice cold buffer such as 50 mM Tris, 1 mM Na2EDTA, 140 mM NaCl, 10 μM indomethacin (pH 7.4). The cells are homogenised using a Polytron tissue disrupter (2×10 s burst at full setting), centrifuged at 48,000×g for 20mins and the pellet containing the membrane fraction is washed (optional) three times by suspension and centrifugation at 48,000×g for 20mins. The final membrane pellet is suspended in an assay buffer such as 10 mM 2-[N-morpholino]ethanesulphonic acid, 1 mM Na2EDTA, 10 mM MgCl2 (pH 6). Aliquots are frozen at […] until required.
For the binding assay the cell membranes, competing compounds and [^3H]-PGE2 (3 nM final assay concentration) are incubated in a final volume of 100 μl for 30 min at 30° C. All reagents are prepared in assay buffer. Reactions are terminated by rapid vacuum filtration over GF/B filters using a Brandell cell harvester. The filters are washed with ice cold assay buffer, dried and the radioactivity retained on the filters is measured by liquid scintillation counting in Packard TopCount scintillation counter.
The data are analysed using non linear curve fitting techniques to determine the concentration of compound producing 50% inhibition of specific binding (IC50).

Row | IC50 [nM] | SMILES
1 | ≤ 31.6 | O=C(O)c1csc(Cc2cc(Cl)ccc2OCc2ccc(Cl)cc2)n1 [Example 11, 2-[(5-chloro-2-{[(4-chlorophenyl)methyl]oxy}phenyl)methyl]-1,3-thiazole-4-carboxylicacid]
2 | ≤ 31.6 | O=C(O)c1csc(Cc2cc(Cl)ccc2OCc2ccc(F)cc2)n1 [Example 12, 2-[(5-chloro-2-{[(4-fluorophenyl)methyl]oxy}phenyl)methyl]-1,3-thiazole-4-carboxylicacid]
3 | ≤ 31.6 | O=C(O)c1csc(Cc2cc(Cl)ccc2OCc2c(F)cc(F)cc2F)n1 [Example 13, 2-[(5-chloro-2-{[(2,4,6-trifluorophenyl)methyl]oxy}phenyl)methyl]-1,3-thiazole-4-carboxylicacid]
4 | ≤ 31.6 | O=C(O)c1csc(Cc2cc(Cl)ccc2OCc2ccc(F)cc2F)n1 [Example 16, 2-[(5-chloro-2-{[(2,4-difluorophenyl)methyl]oxy}phenyl)methyl]-1,3-thiazole-4-carboxylicacid]
5 | ≤ 31.6 | O=C(O)c1csc(Cc2cc(Cl)ccc2OCc2cc(F)c(F)cc2F)n1 [Example 18, Sodium 2-[(5-chloro-2-{[(2,4,5-trifluorophenyl)methyl]oxy}phenyl)methyl]-1,3-thiazole-4-carboxylate]
6 | ≤ 1000 | O=C(O)c1csc(Cc2cc(Cl)ccc2OCc2c(F)ccc(F)c2F)n1 [Example 19, Sodium 2-[(5-chloro-2-{[(2,3,6-trifluorophenyl)methyl]oxy}phenyl)methyl]-1,3-thiazole-4-carboxylate]
7 | ≤ 1000 | O=C(O)c1csc(Cc2cc(Cl)ccc2OCc2ccc(F)c(F)c2F)n1 [Example 20, Sodium 2-[(5-chloro-2-{[(2,3,4-trifluorophenyl)methyl]oxy}phenyl)methyl]-1,3-thiazole-4-carboxylate]
8 | ≤ 1000 | O=C(O)c1csc(Cc2cc(Cl)ccc2OCc2cc(F)c(F)c(F)c2)n1 [Example 21, Sodium 2-[(5-chloro-2-{[(3,4,5-trifluorophenyl)methyl]oxy}phenyl)methyl]-1,3-thiazole-4-carboxylate]
9 | ≤ 31.6 | O=C(O)c1csc(Cc2cc(Cl)ccc2OCc2ccc(Br)cc2F)n1 [Example 22, Sodium 2-[(2-{[(4-bromo-2-fluorophenyl)methyl]oxy}-5-chlorophenyl)methyl]-1,3-thiazole-4-carboxylate]

Continued, compound first:

Row | SMILES | IC50 [nM]
10 | NC(=O)c1nc(Cc2cc(Cl)ccc2OCc2ccc(F)cc2F)cs1 [Example 1, 4-[(5-chloro-2-{[(2,4-difluorophenyl)methyl]oxy}phenyl)methyl]-1,3-thiazole-2-carboxamide] | ≤ 1000
11 | NC(=O)c1nc(Cc2cc(Cl)ccc2OCc2ccccc2F)cs1 [Example 2, 4-[(5-chloro-2-{[(2-fluorophenyl)methyl]oxy}phenyl)methyl]-1,3-thiazole-2-carboxamide] | ≤ 1000
12 | NC(=O)c1nc(Cc2cc(Cl)ccc2OCc2ccccc2Cl)cs1 [Example 3, 4-[(5-chloro-2-{[(2-chlorophenyl)methyl]oxy}phenyl)methyl]-1,3-thiazole-2-carboxamide] | ≤ 1000
13 | NC(=O)c1nc(Cc2cc(Cl)ccc2OCc2c(F)cc(F)cc2F)cs1 [Example 4, 4-[(5-chloro-2-{[(2,4,6-trifluorophenyl)methyl]oxy}phenyl)methyl]-1,3-thiazole-2-carboxamide] | ≤ 1000
14 | NC(=O)c1nc(Cc2cc(Cl)ccc2OCc2ccc(Cl)cc2)cs1 [Example 5, 4-[(5-chloro-2-{[(4-chlorophenyl)methyl]oxy}phenyl)methyl]-1,3-thiazole-2-carboxamide] | ≤ 1000
15 | NC(=O)c1nc(Cc2cc(Cl)ccc2OCc2ccc(F)cc2Cl)cs1 [Example 6, 4-[(5-chloro-2-{[(2-chloro-4-fluorophenyl)methyl]oxy}phenyl)methyl]-1,3-thiazole-2-carboxamide] | ≤ 1000
16 | NC(=O)c1nc(Cc2cc(Cl)ccc2OCc2c(F)ccc(F)c2F)cs1 [Example 7, 4-[(5-chloro-2-{[(2,3,6-trifluorophenyl)methyl]-oxy}phenyl)methyl]-1,3-thiazole-2-carboxamide] | > 1000
17 | NC(=O)c1nc(Cc2cc(Cl)ccc2OCc2cc(F)c(F)cc2F)cs1 [Example 8, 4-[(5-chloro-2-{[(2,4,5-trifluorophenyl)methyl]oxy}phenyl)methyl]-1,3-thiazole-2-carboxamide] | ≤ 1000
18 | O=C(O)c1csc(Cc2cc(Cl)ccc2OCc2ccccc2)n1 [Example 9, 2-({5-chloro-2-[(phenylmethyl)oxy]phenyl}methyl)-1,3-thiazole-4-carboxylicacid] | ≤ 31.6
19 | O=C(O)c1csc(Cc2cc(Cl)ccc2OCc2ccccc2F)n1 [Example 10, 2-[(5-chloro-2-{[(2-fluorophenyl)methyl]oxy}phenyl)methyl]-1,3-thiazole-4-carboxylicacid] | ≤ 31.6
20 | O=C(O)c1csc(Cc2cc(Cl)ccc2OCc2ccc(F)cc2Cl)n1 [Example 14, 2-[(5-chloro-2-{[(2-chloro-4-fluorophenyl)methyl]oxy}phenyl)methyl]-1,3-thiazole-4-carboxylicacid] | ≤ 31.6
21 | O=C(O)c1csc(Cc2cc(Cl)ccc2OCc2ccccc2Cl)n1 [Example 15, 2-[(5-chloro-2-{[(2-chlorophenyl)methyl]oxy}phenyl)methyl]-1,3-thiazole-4-carboxylicacid] | ≤ 31.6
22 | O=C(O)c1csc(Cc2cc(Cl)ccc2OCc2ccc(Cl)cc2Cl)n1 [Example 17, 2-[(5-chloro-2-{[(2,4-dichlorophenyl)methyl]oxy}phenyl)methyl]-1,3-thiazole-4-carboxylicacid] | ≤ 31.6
23 | CC(C)COc1ccc(Cl)cc1Cc1nc(C(=O)O)cs1 [Example 23, Sodium 2-({5-chloro-2-[(2-methylpropyl)oxy}phenyl}methyl)-1,3-thiazole-4-carboxylate] | ≤ 31.6
24 | O=C(O)c1csc(Cc2cc(C(F)(F)F)ccc2OCc2ccccc2)n1 [Example 24, Sodium 2-{[2-[(phenylmethyl)oxy]-5-(trifluoromethyl)phenyl]methyl}-1,3-thiazole-4-carboxylate] | ≤ 31.6
25 | O=C(O)c1csc(Cc2cc(C(F)(F)F)ccc2OCc2ccc(F)cc2)n1 [Example 25, Sodium 2-{[2-{[(4-fluorophenyl)methyl]oxy}-5-(trifluoromethyl)phenyl]methyl}-1,3-thiazole-4-carboxylate] | ≤ 1000
26 | O=C(O)c1csc(Cc2cc(C(F)(F)F)ccc2OCc2ccc(F)cc2F)n1 [Example 26, Sodium 2-{[2-{[(2,4-difluorophenyl)methyl]oxy}-5-(trifluoromethyl)phenyl]methyl}-1,3-thiazole-4-carboxylate] | ≤ 31.6
27 | O=C(O)c1csc(Cc2cc(Cl)ccc2OCC2CCCC2)n1 [Example 27, Sodium 2-({5-chloro-2-[(cyclopentylmethyl)oxy]phenyl}methyl)-1,3-thiazole-4-carboxylate] | ≤ 31.6
28 | O=C(O)c1csc(Cc2cc(C(F)(F)F)ccc2OCc2ccccc2Br)n1 [Example 28, Sodium 2-{[2-{[(2-bromophenyl)methyl]oxy}-5-(trifluoromethyl)phenyl]methyl}-1,3-thiazole-4-carboxylate] | ≤ 1000
29 | O=C(O)c1csc(Cc2cc(C(F)(F)F)ccc2OCc2ccccc2F)n1 [Example 29, Sodium 2-{[2-{[(2-fluorophenyl)methyl]oxy}-5-(trifluoromethyl)phenyl]methyl}-1,3-thiazole-4-carboxylate] | ≤ 31.6
